According to patent US20160281133A1, “STABILIZATION AND ISOLATION OF EXTRACELLULAR NUCLEIC ACIDS” (QIAGEN GMBH, priority 2013, published 2016):
Where a SMILES comes first, the peptide text is derived from it. The star is where a group is joined. Cbz = O=C(OCc1ccccc1)*

Columns and labels:
[1] = target: T1, calpain II (Homo sapiens, UniProt P17655); details: cited from earlier work
T1 sequence (P17655 1-700): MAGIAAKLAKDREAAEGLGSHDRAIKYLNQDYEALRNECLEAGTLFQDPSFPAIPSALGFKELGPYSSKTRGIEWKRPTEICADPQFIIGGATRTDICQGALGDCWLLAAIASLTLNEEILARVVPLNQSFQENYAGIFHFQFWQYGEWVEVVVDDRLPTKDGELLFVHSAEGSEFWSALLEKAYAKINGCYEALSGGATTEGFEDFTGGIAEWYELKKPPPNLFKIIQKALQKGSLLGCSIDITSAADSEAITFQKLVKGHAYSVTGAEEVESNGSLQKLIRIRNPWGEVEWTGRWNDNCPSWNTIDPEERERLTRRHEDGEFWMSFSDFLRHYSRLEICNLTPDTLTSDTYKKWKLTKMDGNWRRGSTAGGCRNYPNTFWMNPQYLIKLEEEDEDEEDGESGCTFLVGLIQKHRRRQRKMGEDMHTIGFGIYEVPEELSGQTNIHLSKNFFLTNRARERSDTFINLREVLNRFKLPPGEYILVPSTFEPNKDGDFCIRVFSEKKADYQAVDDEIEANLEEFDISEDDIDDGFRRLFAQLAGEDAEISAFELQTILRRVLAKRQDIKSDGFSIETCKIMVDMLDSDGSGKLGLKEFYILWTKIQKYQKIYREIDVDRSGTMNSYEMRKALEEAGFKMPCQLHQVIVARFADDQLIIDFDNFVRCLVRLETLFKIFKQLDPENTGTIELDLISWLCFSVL
T1 sequence (P04632 1-268 partner): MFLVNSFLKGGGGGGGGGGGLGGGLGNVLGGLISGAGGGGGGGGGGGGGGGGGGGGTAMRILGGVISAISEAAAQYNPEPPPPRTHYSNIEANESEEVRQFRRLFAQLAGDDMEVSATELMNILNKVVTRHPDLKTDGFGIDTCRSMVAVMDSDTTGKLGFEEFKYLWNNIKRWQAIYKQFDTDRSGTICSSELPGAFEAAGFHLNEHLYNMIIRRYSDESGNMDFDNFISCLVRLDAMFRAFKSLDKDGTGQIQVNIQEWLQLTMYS

[2] = target: cathepsin L (Homo sapiens, UniProt P07711); details: cited from earlier work
Chain of cathepsin L (P07711 114-333, species assumed): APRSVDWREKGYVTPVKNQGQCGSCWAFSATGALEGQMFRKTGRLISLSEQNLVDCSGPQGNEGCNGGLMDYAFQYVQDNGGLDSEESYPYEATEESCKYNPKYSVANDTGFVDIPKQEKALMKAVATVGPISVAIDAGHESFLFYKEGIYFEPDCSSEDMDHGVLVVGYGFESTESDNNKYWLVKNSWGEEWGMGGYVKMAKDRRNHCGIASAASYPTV

[3] = target: T2, caspase-3 (Homo sapiens, UniProt P42574); details: cited from earlier work
T2 sequence (P42574 29-175 limits assumed): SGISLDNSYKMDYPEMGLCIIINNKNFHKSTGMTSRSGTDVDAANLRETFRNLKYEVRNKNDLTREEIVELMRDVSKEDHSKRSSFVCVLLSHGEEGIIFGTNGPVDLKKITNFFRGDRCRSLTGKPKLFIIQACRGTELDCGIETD
T2 sequence (P42574 176-277 limits assumed): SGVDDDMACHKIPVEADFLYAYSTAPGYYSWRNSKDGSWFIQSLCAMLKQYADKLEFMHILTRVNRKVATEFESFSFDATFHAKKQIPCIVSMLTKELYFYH

[4] = target: T3, caspase-1 (Homo sapiens, UniProt P29466); details: cited from earlier work
T3 sequence (P29466 120-297 limits assumed): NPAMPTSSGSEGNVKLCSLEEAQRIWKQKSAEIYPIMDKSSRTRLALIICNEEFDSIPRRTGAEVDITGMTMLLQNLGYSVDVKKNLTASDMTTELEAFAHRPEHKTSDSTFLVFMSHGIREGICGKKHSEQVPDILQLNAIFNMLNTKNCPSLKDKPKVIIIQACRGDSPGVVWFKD
T3 sequence (P29466 317-404 limits assumed): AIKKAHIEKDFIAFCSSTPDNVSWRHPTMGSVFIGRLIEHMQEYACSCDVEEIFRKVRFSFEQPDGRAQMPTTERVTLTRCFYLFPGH

[5] = in neuron culture medium at 37° C.; cited from earlier work
[6] = tested on: white blood cells; assay: 18S rDNA qPCR (66 bp / 500 bp): release of genomic DNA into plasma of stored stabilized blood, examples 1-4; type: cell-based, human
Experimental: Blood from two different donors was collected into 10 ml K2 EDTA tubes (BD). 4.5 ml of the respectively collected blood was mixed with 0.9 ml of two different stabilization solutions A and B. Said stabilization solutions contained (per ml of stabilization solution):
A: 34.2 mg K2 EDTA and 0.15 g or 0.18 g butanamide in water When using stabilization solution A, the following final concentration in the blood/stabilization mixture was obtained: 7.2 mg K2 EDTA/ml and 2.5% (w/v) or 3% (w/v) butanamide. […] When using stabilization solution B, the following final concentration in the blood/stabilization mixture was obtained: 7.2 mg K2 EDTA/ml, 3% (w/v) butanamide and 1 μM Quinoline-Val-Asp-CH2-OPH (caspase inhibitor).
All stabilized blood samples were set up in triplicates per condition and test time point. At time point 0 (reference), immediately after mixing the stabilization solution and blood, plasma was generated and the circulating extracellular DNA was extracted. The residual stabilized blood sample was stored for three days and six days at room temperature.
Plasma was generated from the stabilized and unstabilized (EDTA) blood samples by inverting the blood containing tubes for four times. Then, the tubes were centrifuged for 10 minutes at 1900×g at 4° C. 2.5 ml of the plasma fraction was transferred into a fresh 15 ml falcon tube and centrifuged for 10 minutes at 16.000×g at 4° C. 2 ml of the respectively cleared plasma was used for extracellular nucleic acid isolation using the QIAamp circulating nucleic acid kit (QIAGEN) according to the manufacturer's instructions.
The isolated extracellular DNA was analyzed using two different qPCR assays, targeting different fragment lengths of the 18S ribosomal DNA:
18S ribosomal DNA: 66 bp amplicon 18S ribosomal DNA: 500 bp amplicon
Cycle threshholds of the individual samples were translated into amount of gDNA in the eluate, according to a gDNA standard curve. The gDNA amount of the storage time points was compared to the time zero gDNA level from the same donor and is shown as fold increase in the figures. […]

Compound: CC(C)C[C@H](NC(=O)OCc1ccccc1)C(=O)N[C@@H](CC(C)C)C(=O)N[C@@H](Cc1ccc(O)cc1)C(=O)CF [Calpain Inhibitor IV, Z-Leu-Leu-Tyr-CH2F] (HELM PEPTIDE1{[O=C(OCc1ccccc1)[*:2]].L.L.Y.[FC[*:1]]}$$$$V2.0)
- k2 ([1]; irreversible inhibitor): 28,900 M−1s−1). Also acts as an inhibitor of cathepsin L (k2 =
- k2 [2]: 680,000 M−1s−1).

Compound: CC(C)C(NC(=O)OCc1ccccc1)C(=O)NC(C=O)Cc1ccccc1 (stereo not drawn) [Calpain Inhibitor III, Z-Val-Phe-CHO] (Cbz-Val-Phe-aldehyde; configuration not given here)
- Ki [1]: 8 nM

Compound: Ac-Ala-Ala-Val-Ala-Leu-Leu-Pro-Ala-Val-Leu-Leu-Ala-Leu-Leu-Ala-Pro-Asp-Glu-Val-Asp-CHO (Ac-AAVALLPAVLLALLAPDEVD-aldehyde; SMILES CC(=O)N[C@@H](C)C(=O)N[C@@H](C)C(=O)N[C@H](C(=O)N[C@@H](C)C(=O)N[C@@H](CC(C)C)C(=O)N[C@@H](CC(C)C)C(=O)N1CCC[C@H]1C(=O)N[C@@H](C)C(=O)N[C@H](C(=O)N[C@@H](CC(C)C)C(=O)N[C@@H](CC(C)C)C(=O)N[C@@H](C)C(=O)N[C@@H](CC(C)C)C(=O)N[C@@H](CC(C)C)C(=O)N[C@@H](C)C(=O)N1CCC[C@H]1C(=O)N[C@@H](CC(=O)O)C(=O)N[C@@H](CCC(=O)O)C(=O)N[C@H](C(=O)N[C@H](C=O)CC(=O)O)C(C)C)C(C)C)C(C)C) [Caspase-3 Inhibitor I, Cell-Permeable]
- Ki [3]: < 1 nM

Compound: Ac-Ala-Ala-Val-Ala-Leu-Leu-Pro-Ala-Val-Leu-Leu-Ala-Leu-Leu-Ala-Pro-Tyr-Val-Ala-Asp-CHO (Ac-AAVALLPAVLLALLAPYVAD-aldehyde; SMILES CC(=O)N[C@@H](C)C(=O)N[C@@H](C)C(=O)N[C@H](C(=O)N[C@@H](C)C(=O)N[C@@H](CC(C)C)C(=O)N[C@@H](CC(C)C)C(=O)N1CCC[C@H]1C(=O)N[C@@H](C)C(=O)N[C@H](C(=O)N[C@@H](CC(C)C)C(=O)N[C@@H](CC(C)C)C(=O)N[C@@H](C)C(=O)N[C@@H](CC(C)C)C(=O)N[C@@H](CC(C)C)C(=O)N[C@@H](C)C(=O)N1CCC[C@H]1C(=O)N[C@@H](Cc1ccc(O)cc1)C(=O)N[C@H](C(=O)N[C@@H](C)C(=O)N[C@H](C=O)CC(=O)O)C(C)C)C(C)C)C(C)C) [Caspase-1 Inhibitor I, Cell-Permeable]
- Ki [4]: 1 nM

Compound: Ac-Tyr-Val-Ala-Asp-CMK [Caspase-1 Inhibitor II]
- Ki [4]: 0.76 nM

Compound: N=c1sc2c(n1CC(=O)c1ccc([N+](=O)[O-])cc1)CCCC2 [Pifithrin-α, p-Nitro]
- t½ [5]: biological systems (t½ = 8 h in neuron culture medium at 37° C.).

Compound: CCCC(N)=O [butanamide]
- stabilization capabilities compared to DMAA ([6]; Example 2, 2.5, 3, 3.5% (w/v) butanamide with 1 μM caspase inhibitor and EDTA vs 5% DMAA): at least comparable stabilization capabilities to DMAA
- stabilization capabilities compared to the stabilization solution comprising DMAA ([6]; Example 3, 0.5, 1.5, 2% butanamide in combination with 2.5, 1.5, 1% DMPA, 1 μM caspase inhibitor, EDTA): comparable stabilization capabilities
- increase in 18S rDNA ([6]; Example 4, 0.5, 1.5, 2.5% (w/v) butanamide with 1 μM caspase inhibitor and 7.2 mg K2EDTA/ml): significantly reduced increase in 18S rDNA
